Experimental data from US6740335B1, “Liposomal camptothecin formulations” (priority 1997, dated 2004).
Counter-ions that a name gives are not always drawn.

How the values were obtained:
[1] = test system: KB Tumor Xenograft; experiment: Repeat dose efficacy, KB xenograft; assay type: in vivo, nude mice; settings: 14 mg/kg
Description: (§1) Drugs were dosed on days 1,8 and 15.

[2] = test system: HT29 human colon tumor; experiment: Xenograft efficacy at identical dose, HT29; assay type: in vivo; settings: for Log 10 Cell Kill / T-C (time to reach 1,000% Tumor Volume, treated vs control): QD7 × 3; for % TGI: QD7 × 3, day 26
Description: (§2) In all the studies performed, subcutaneous tumors implanted on the anterior flank of nude mice were allowed to grow to an established size of 200+/−50 mm^3 prior to dosing drugs.
(§3) The xenograft models included the HT29 and SW48 human colon tumor lines, and the KB and KBV head-neck tumors. Drugs were dosed at either 6 or 9 mg/kg intravenously, on a weekly schedule for 3 consecutive weeks. In the SW48 xenograft study, the animals received a total of two cycles of therapy (6 injections), with a 10 day recovery period separating the two therapeutic courses. In the HT29 xenograft study a 12 and 14 mg/kg dose group was added.

[3] = Plasma pharmacokinetics in Sprague-Dawley rats after IV dose; settings: rat, in vivo
Description: The pharmacokinetics were then compared for free drug and membrane entrapped GI147211 liposomes dosed at 5 mg/kg in Sprague Dawley rats. Rats were dosed at 1 mg/kg to compare free GI147211 to passive and actively loaded liposomes.
Pharmacokinetic studies were carried out on various liposomal formulations of GI147211 in rats and mice by IV bolus administration. Plasma samples were precipitated with acetonitrile and the supematant for each sample was analyzed by reverse phase HPLC using isocratic elution and monitoring fluorescence. […] Concentration values were determined for unknown samples and quality control samples based on interpolation using a linear fit of the standard samples. In each study the average plasma concentration at each time point was calculated and utilized in the pharmacokinetic analysis. Noncompartmental analysis were carried out using WinNonlin™ (Standard Edition, version 1.5 ©, Scientific Consulting, Inc.) and the following parameters were calculated: the maximum concentration extrapolated at zero time (Cmax), the area under the curve from zero to infinite time (AUC total), the terminal phase half life (t½), the clearance rate (C1), and the volume of distribution at steady state (Vss).

[4] = test system: KB Head/Neck Tumor; experiment: Xenograft efficacy at identical dose, KB; assay type: in vivo, nude mice; settings: for Log 10 Cell Kill / T-C (time to reach 1,000% Tumor Volume, treated vs control): QD7 × 3; for % TGI: QD7 × 3, day 22
Description: as §2, §3

[5] = test system: ES2 Tumor Xenograft; experiment: Repeat dose efficacy at equal toxic doses, ES2 xenograft; settings: ES2, 14 mg/kg, days 1, 8 and 15
Description: as §2, §1

[6] = test system: A549 (lung carcinoma); experiment: 3H-thymidine incorporation cytotoxicity assay, A549; assay type: cell-based; settings: Homo sapiens, A549, 42 h; read-out: Median IC50
Description: (§4) In vitro efficacy screening has been performed using GI147211 and liposomal formulations of GI147211. […] Standard tumor cell-based cytototoxicity assays assessing ^3H-thymidine incorporation were performed.
(§5) Tumor cells were seeded into 96-well tissue culture plates (1×10^4 cells/well)≡4 h prior to experimentation. […] Positive and negative (Tris treated) control groups were included on each assay plate. Tumor cells were then labeled with 0.25 μCi of [methyl-^3H] thymidine and incubated for 42 h under tissue culture conditions (37° C., 5% CO2, 100% relative humidity), except for C6, U251, A673 and B16-F1 cells which were incubated for 24 h. Cells were then lysed, harvested onto glass-fiber filters and unincorporated [methyl-^3H] thymidine removed by filter washing. Filters were processed for scintillation counting and cpm-^3H/well determined. […] Data are presented from multiple sets of experimentation, involving multiple liposomal formulations of GI147211.

[7] = test system: A673 (Rhabdomyosarcoma); experiment: 3H-thymidine incorporation cytotoxicity assay, A673; assay type: cell-based, human; settings: Homo sapiens, A673, 24 h; read-out: Median IC50
Description: as §4, §5

[8] = test system: KB (oralpharyngial carcinoma); experiment: 3H-thymidine incorporation cytotoxicity assay, KB; assay type: cell-based, human; settings: Homo sapiens, 42 h, read-out: Median IC50
Description: as §4, §5

[9] = test system: SW48 human colon tumor; experiment: Xenograft efficacy at identical dose, SW48; assay type: in vivo, nude mice; settings: SW48, 9 mg/kg, QD7 × 3, two cycles; for % TGI: day 35, dihydrochloride
Description: as §2, §3

[10] = test system: DU-145 (prostate carcinoma); experiment: 3H-thymidine incorporation cytotoxicity assay, DU-145; assay type: cell-based, human; settings: Homo sapiens, DU-145, 42 h; read-out: Median IC50
Description: as §4, §5

CCC1(O)C(=O)OCc2c1cc1n(c2=O)Cc2c-1nc1cc3c(cc1c2CN1CCN(C)CC1)OCCO3 (stereo in doubt) [GI147211, 7-(4-methylpiperazinomethylene)-10,11-ethylenedioxy-20(S)-camptothecin dihydrochloride]
% TGI ([1]; day 15): 83%
Mean Tumor Volume +/− (SD) ([1]; days 1, 8 and 15): 275 (67)
Toxic Deaths ([1]; days 1, 8 and 15): 0/8
Log 10 Cell Kill ([2]; HT29, 6 mg/kg iv): 0.753
T-C (time to reach 1,000% Tumor Volume, treated vs control) ([2]; HT29, 6 mg/kg iv): 12 days
% TGI ([2]; HT29, 6 mg/kg iv): 48%
Log 10 Cell Kill ([2]; HT29, 9 mg/kg iv): 0.753
T-C (time to reach 1,000% Tumor Volume, treated vs control) ([2]; HT29, 9 mg/kg iv): 12 days
% TGI ([2]; HT29, 9 mg/kg iv, dihydrochloride): 54%
% TGI ([2]; HT29, 9 mg/kg iv, listed as free drug, dihydrochloride): 54%
Log 10 Cell Kill ([2]; HT29, 12 mg/kg iv): 0.815
T-C (time to reach 1,000% Tumor Volume, treated vs control) ([2]; HT29, 12 mg/kg iv): 13 days
% TGI ([2]; HT29, 12 mg/kg iv): 70%
Log 10 Cell Kill ([2]; HT29, 14 mg/kg iv): 1.94
T-C (time to reach 1,000% Tumor Volume, treated vs control) ([2]; HT29, 14 mg/kg iv): 31 days
% TGI ([2]; HT29, 14 mg/kg iv): 78%
AUC ([3]; 1 mg/kg): 136 ng·h/mL
Cmax ([3]; 1 mg/kg): 100 ng/mL
Vd ([3]; 1 mg/kg): 9.23 L/kg
clearance ([3]; 1 mg/kg): 123 mL/min/kg
half-life ([3]; 1 mg/kg): 1.17 h
AUC ([3]; 5 mg/kg): 640 ng·h/mL
Cmax ([3]; 5 mg/kg): 690 ng/mL
clearance ([3]; 5 mg/kg): 132 mL/min/kg
half-life ([3]; 5 mg/kg): 2.45 h
Log 10 Cell Kill ([4]; 6 mg/kg iv): 0.87
T-C (time to reach 1,000% Tumor Volume, treated vs control) ([4]; 6 mg/kg iv): 9 days
% TGI ([4]; 6 mg/kg iv): 54%
Log 10 Cell Kill ([4]; 9 mg/kg iv): 1.64
T-C (time to reach 1,000% Tumor Volume, treated vs control) ([4]; 9 mg/kg iv): 17 days
% TGI ([4]; 9 mg/kg iv): 73%
Cures [5]: 1
Log Cell Kill [5]: 2.14
Maximum Body Weight loss [5]: 9%
T − C (to reach 400% tumor volume increase) [5]: 27 days
Toxic Deaths [5]: 3
IC50 [6]: 6.94 ng/mL
IC50 [7]: 0.58 ng/mL
IC50 [8]: 4.31 ng/mL
Log 10 Cell Kill [9]: 1.9
T-C (time to reach 1,000% Tumor Volume, treated vs control) [9]: 40 days
% TGI [9]: 86%
% TGI ([9]; listed as free drug): 86%
IC50 [10]: 1.61 ng/mL
